Measured values as given in patent publication US20230212121A1 (DAEGU-GYEONGBUK MEDICAL INNOVATION FOUNDATION, priority 2020, published 2023).

Legend:
Assay type in all cases: cell-based
[1] = target: T1, serotonin transporter (SERT) (Homo sapiens, UniProt P31645); test: Serotonin reuptake inhibition, [3H]-5-HT, HEK-293 cells transfected with 5-HT transporter cDNA; conditions: for Triple reuptake inhibition (Ratio %) SERT: compound 1 μM, [3H]-5-HT, relative to control without compound = 100%, lower value = more inhibition; for IC50: concentration at which Ratio % is 50%, 6 concentrations 1 nM to 1 μM, read-out: Triple reuptake inhibition (IC50, μM) SERT
T1 construct: expressed in transfected cells; host or cells: HEK-293
Experimental: (§1) In order to evaluate the reuptake inhibitory effect of the compounds of the Examples according to the present invention on serotonin, norepinephrine and dopamine, the experiments below were performed, and the results are shown in Table 17.
(§2) To evaluate the reuptake inhibition effect on dopamine, the dopamine transporter cDNA was transfected using the HEK-293 cell line, and then sub-seeded in a 24 well plate the next day. After removing the medium, each compound of the Examples or Comparative Examples diluted to 1 μM in uptake buffer was added to a concentration of 200 μl/well and cultured at 37° C. for 15 minutes. 100 μl of uptake buffer containing 20-30 nM [3H]-DA was added and cultured at 37° C. for 5 minutes. The reaction solution was quickly removed and washed three times with 1 ml ice-cold uptake buffer. After dissolving the resultant in 1% SDS (0.5 ml), the degree of binding of radioisotope-labeled dopamine to the transporter was measured.
(§3) For norepinephrine (NE) and serotonin (5-HT), the degree of binding of radioisotope-labeled norepinephrine or serotonin to the transporter was measured in the same manner as above, except that cells transfected with NE or 5-HT transporter cDNA were used and [3H]—NE or [3H]-5-HT was used as a substrate.
(§4) In addition, when evaluating the reuptake inhibitory effect on dopamine, norepinephrine, and serotonin, the same method was performed without treating each compound of the Examples or Comparative Examples as a control, the degree of binding of radioisotope-labeled dopamine, norepinephrine, and serotonin to the transporter was measured, and by using this as a reference (100%), the triple reuptake inhibitory effect was evaluated as a relative ratio (Ratio %). That is, in the control group, the binding of dopamine, norepinephrine, and serotonin to transporters is not inhibited, but when each compound of the Examples is treated and thus the binding is inhibited, the Ratio % value decreases.
(§5) Meanwhile, the Ratio % values were compared, and in the case of the compounds of Examples 6, 10, 13, 14, 17, 20, 21, 22, 30, 31, 32, 34, 36, 38, 39, 40, 54, 55, 56, 57, 58 and 73 with excellent reuptake inhibitory effects on dopamine, norepinephrine and serotonin, the concentration at which the Ratio % is 50% was calculated using a total of 6 concentrations (1 nM, 5 nM, 10 nM, 50 nM, 100 nM, and 1 μM) and expressed as IC50.

[2] = target: T2, norepinephrine transporter (NET) (Homo sapiens, UniProt P23975); test: Norepinephrine reuptake inhibition, [3H]-NE, HEK-293 cells transfected with NE transporter cDNA; conditions: for Triple reuptake inhibition (Ratio %) NET: compound 1 μM, [3H]-NE, relative to control without compound = 100%, lower value = more inhibition; for IC50: concentration at which Ratio % is 50%, 6 concentrations 1 nM to 1 μM, read-out: Triple reuptake inhibition (IC50, μM) NET
T2 construct: expressed in transfected cells; host or cells: HEK-293
Experimental: as §1, §2, §3, §4, §5

[3] = target: T3, dopamine transporter (DAT) (Homo sapiens, UniProt Q01959); test: Dopamine reuptake inhibition, [3H]-DA, HEK-293 cells transfected with dopamine transporter cDNA; conditions: for Triple reuptake inhibition (Ratio %) DAT: compound 1 μM, 20-30 nM [3H]-DA, relative to control without compound = 100%, lower value = more inhibition; for IC50: concentration at which Ratio % is 50%, 6 concentrations 1 nM to 1 μM, read-out: Triple reuptake inhibition (IC50, μM) DAT
T3 construct: expressed in transfected cells; host or cells: HEK-293
Experimental: as §1, §2, §4, §5

T3 sequence (Q01959 whole entry, species assumed): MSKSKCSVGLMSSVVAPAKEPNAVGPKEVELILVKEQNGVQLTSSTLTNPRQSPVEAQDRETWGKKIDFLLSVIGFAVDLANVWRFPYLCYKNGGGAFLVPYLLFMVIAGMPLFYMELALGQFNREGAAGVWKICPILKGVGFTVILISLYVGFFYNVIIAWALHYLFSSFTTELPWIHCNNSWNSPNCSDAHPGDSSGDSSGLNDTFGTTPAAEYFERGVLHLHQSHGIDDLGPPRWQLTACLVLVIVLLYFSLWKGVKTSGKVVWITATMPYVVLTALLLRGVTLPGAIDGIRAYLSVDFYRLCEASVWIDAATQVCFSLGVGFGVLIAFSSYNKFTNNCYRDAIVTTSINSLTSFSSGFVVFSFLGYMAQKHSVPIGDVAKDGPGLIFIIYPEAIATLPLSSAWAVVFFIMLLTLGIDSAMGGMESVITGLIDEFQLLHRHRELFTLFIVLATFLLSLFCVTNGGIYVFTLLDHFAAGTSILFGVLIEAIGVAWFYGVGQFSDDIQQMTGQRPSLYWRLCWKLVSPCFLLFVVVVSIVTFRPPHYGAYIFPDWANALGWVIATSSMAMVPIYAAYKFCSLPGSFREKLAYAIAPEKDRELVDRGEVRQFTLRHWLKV
T2 sequence (P23975 whole entry, species assumed): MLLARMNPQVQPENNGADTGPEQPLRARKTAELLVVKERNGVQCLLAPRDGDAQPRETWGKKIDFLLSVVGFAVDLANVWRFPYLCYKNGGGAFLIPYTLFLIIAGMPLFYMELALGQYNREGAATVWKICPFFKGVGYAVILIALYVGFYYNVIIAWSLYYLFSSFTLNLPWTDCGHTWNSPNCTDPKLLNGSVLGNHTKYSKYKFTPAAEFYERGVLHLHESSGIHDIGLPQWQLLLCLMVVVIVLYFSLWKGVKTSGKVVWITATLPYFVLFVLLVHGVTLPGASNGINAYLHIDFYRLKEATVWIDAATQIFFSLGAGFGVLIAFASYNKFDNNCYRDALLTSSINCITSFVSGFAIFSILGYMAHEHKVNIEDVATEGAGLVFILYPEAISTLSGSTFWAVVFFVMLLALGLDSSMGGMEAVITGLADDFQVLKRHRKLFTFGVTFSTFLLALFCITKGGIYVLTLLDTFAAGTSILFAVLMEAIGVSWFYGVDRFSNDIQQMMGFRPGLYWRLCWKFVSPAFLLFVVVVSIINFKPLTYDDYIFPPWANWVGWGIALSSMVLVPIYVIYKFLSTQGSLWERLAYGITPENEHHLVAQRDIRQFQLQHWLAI
T1 sequence (P31645 whole entry, species assumed): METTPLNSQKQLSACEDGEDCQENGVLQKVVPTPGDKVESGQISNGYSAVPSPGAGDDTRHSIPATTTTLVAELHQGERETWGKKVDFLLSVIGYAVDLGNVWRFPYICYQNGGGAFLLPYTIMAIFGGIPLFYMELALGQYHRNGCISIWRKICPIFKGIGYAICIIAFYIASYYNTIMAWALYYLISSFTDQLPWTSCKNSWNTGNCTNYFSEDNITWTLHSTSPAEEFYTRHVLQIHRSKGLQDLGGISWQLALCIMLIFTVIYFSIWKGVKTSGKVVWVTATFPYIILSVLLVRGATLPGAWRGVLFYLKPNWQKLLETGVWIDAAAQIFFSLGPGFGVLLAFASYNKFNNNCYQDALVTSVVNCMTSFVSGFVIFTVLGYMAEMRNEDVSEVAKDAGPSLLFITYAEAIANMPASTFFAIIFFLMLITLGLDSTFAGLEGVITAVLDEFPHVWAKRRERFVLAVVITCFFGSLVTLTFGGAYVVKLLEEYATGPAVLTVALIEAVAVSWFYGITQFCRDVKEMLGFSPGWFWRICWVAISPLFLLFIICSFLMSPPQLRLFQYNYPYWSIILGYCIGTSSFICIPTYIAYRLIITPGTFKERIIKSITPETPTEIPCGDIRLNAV

Row | Compound | Triple reuptake inhibition (Ratio %) NET [2] | Triple reuptake inhibition (Ratio %) DAT [3] | IC50 [3] | IC50 [1] | IC50 [2] | Triple reuptake inhibition (Ratio %) SERT [1]
1 | O=S(=O)(NCCN1CCC(Cc2ccccc2)CC1)c1ccc(Oc2ccccc2)cc1 [Example 3, N-(2-(4-benzylpiperidin-1-yl)ethyl)-4-phenoxybenzenesulfonamide] | 56.36% | 50.09% |  |  |  | 62.10%
2 | O=S(=O)(NCCCCN1CCC(Cc2ccccc2)CC1)c1ccc(-c2ccccc2)cc1 [Example 77, N-(4-(4-benzylpiperidin-1-yl)butyl)-[1,1′-biphenyl]-4-sulfonamide] | 44.79% | 25.71% |  |  |  | 40.45%
3 | CCCCOc1ccc(S(=O)(=O)NCCCN2CCN(CC3CCOCC3)CC2)cc1 [Example 25, 4-butoxy-N-(3-(4-((tetrahydro-2H-pyran-4-yl)methyl)piperazin-1-yl)propyl)benzenesulfonamide] | 102.91% | 111.51% |  |  |  | 84.44%
4 | CCCCOc1ccc(S(=O)(=O)NCCCN2CCC(Cc3ccccc3)CC2)nc1 [Example 35, N-(3-(4-benzylpiperidinyl)propyl)-5-butoxypyridin-2-sulfonamide] | 51.99% | 16.12% |  |  |  | 53.08%
5 | O=S(=O)(NCCCN1CCC(Cc2ccccc2)CC1)c1ccc(Oc2ccccc2)cc1 [Example 13, N-(3-(4-benzylpiperidin-1-yl)propyl)-4-phenoxybenzenesulfonamide] | 11.04% | 25.55% | 0.872 µM | 1.08 µM | 0.112 µM | 41.46%
6 | CCCCOc1ccc(S(=O)(=O)NCCCN2CCC(c3cccc(Cl)c3Cl)CC2)cc1 [Example 33, 4-butoxy-N-(3-(4-(2,3-dichlorophenyl)piperidin-1-yl)propyl)benzenesulfonamide] | 68.93% | 66.67% |  |  |  | 59.74%
7 | CCCCOc1ccc(S(=O)(=O)NCCCN2CCC(Cc3ccc(C)cc3)CC2)cc1 [Example 29, 4-butoxy-N-(3-(4-(4-methylbenzyl)piperidin-1-yl)propyl)benzenesulfonamide] | 54.04% | 89.50% |  |  |  | 39.39%
8 | CCCCOc1ccc(S(=O)(=O)N2CCC(c3c[nH]c4ccccc34)CC2)cc1 [Example 5, 3-(1-((4-butoxyphenyl)sulfonyl)piperidin-4-yl)-1H-indole] | 94.03% | 100.55% |  |  |  | 106.55%
9 | N-(3-(4-benzylpiperidin-1-yl)propyl)-4-butoxybenzenesulfineamide [Example 19] | 64.78% | 57.52% |  |  |  | 67.86%
10 | CCCCOc1ccc(S(=O)(=O)NCCCN2CCN(c3cccc(Cl)c3Cl)CC2)cc1 [Example 24, 4-butoxy-N-(3-(4-(2,3-dichlorophenyl)piperazin-1-yl)propyl)benzenesulfonamide] | 58.70% | 99.30% |  |  |  | 60.27%
11 | CCCCOc1ccc(S(=O)(=O)NCCCN2CCN(c3cccc(C(F)(F)F)c3)CC2)cc1 [Example 26, 4-butoxy-N-(3-(4-(3-(trifluoromethyl)phenyl)piperazin-1-yl)propyl)benzenesulfonamide] | 93.31% | 97.83% |  |  |  | 50.98%
12 | CCCCOc1ccc(S(=O)(=O)N2CCC(CCc3ccccc3)CC2)cc1 [Example 9, 1-((4-butoxyphenyl)sulfonyl)-4-phenethylpiperidin] | 96.32% | 109.25% |  |  |  | 101.11%
13 | O=C(CCN1CCCCC1)Nc1ccc(S(=O)(=O)NCCCN2CCC(Cc3ccccc3)CC2)cc1 [Example 17, N-(4-(N-(3-(4-benzylpiperidin-1-yl)propyl)sulfamoyl)phenyl)-3-(piperidin-1-yl)propaneamide] | 58.66% | 40.96% | 5.17 µM | 0.057 µM | 1.56 µM | 9.28%
14 | CCCCOc1ccc(S(=O)(=O)NCCN2CCC(c3c[nH]c4ccc(C)cc34)CC2)cc1 [Example 7, 4-butoxy-N-(2-(4-(5-methyl-1H-indol-3-yl)piperidin-1-yl)ethyl)benzenesulfonamide] | 88.38% | 99.63% |  |  |  | 93.29%

Second part, led by results:

Row | Triple reuptake inhibition (Ratio %) NET [2] | Triple reuptake inhibition (Ratio %) DAT [3] | IC50 [3] | IC50 [1] | IC50 [2] | Compound | Triple reuptake inhibition (Ratio %) SERT [1]
15 | 87.27% | 83.08% |  |  |  | O=S(=O)(NCCN1CCN(Cc2ccccc2)CC1)c1ccc2ccccc2c1 [Example 46, N-(2-(4-benzylpiperazin-1-yl)ethyl)naphthalen-2-sulfonamide] | 49.64%
16 | 45.04% | 89.88% |  |  |  | O=S(=O)(NCCCN1CCC(c2ccccc2)CC1)c1ccc2ccccc2n1 [Example 65, N-(3-(4-phenylpiperidin-1-yl)propyl)quinolin sulfonamide] | 56.73%
17 | 87.27% | 86.5% |  |  |  | O=S(=O)(NCCCN1CCN(c2ccc(Cl)cc2)CC1)c1ccc2ccccc2c1 [Example 70, N-(3-(4-(4-chlorophenyl)piperazin-1-yl)propyl)naphthalen-2-sulfonamide] | 45.16%
18 | 87.27% | 83.08% |  |  |  | O=S(=O)(NCCN1CCN(Cc2ccccc2)CC1)c1cccc2ccccc12 [Example 47, N-(2-(4-benzylpiperazin-1-yl)ethyl)naphthalen-1-sulfonamide] | 49.64%
19 | 79.12% | 30.48% | 0.843 µM |  |  | O=S(=O)(NCCN1CCC(Cc2ccccc2)CC1)c1cc2ccccc2[nH]1 [Example 36, N-(2-(4-benzylpiperidin-1-yl)ethyl)-1H-indol-2-sulfonamide] | 72.85%
20 | 44.79% | 29.62% |  |  |  | COc1ccc(-c2ccc(S(=O)(=O)NCCCN3CCC(Cc4ccccc4)CC3)cc2)cc1 [Example 61, N-(3-(4-benzylpiperidin-1-yl)propyl)-4′-methoxy-[1,1′-biphenyl]-4-sulfonamide] | 30.78%
21 | 68.65% | 61.90% | 0.42 µM | 0.75 µM | 0.641 µM | O=S(=O)(NCCCN1CCC(Cc2ccccc2)CC1)c1ccc(-c2ccccc2)cc1 [Example 56, N-(3-(4-benzylpiperidin-1-yl)propyl)-[1,1′-biphenyl]-4-sulfonamide] | 56.50%
22 | 64.45% | 68.53% |  |  |  | O=S(=O)(NCCN1CCN(c2ccc(Cl)cc2)CC1)c1ccc2ccccc2n1 [Example 53, N-(2-(4-(4-chlorophenyl)piperazinyl)ethyl)quinolin-2-sulfonamide] | 47.19%
23 | 66.54% | 65.67% |  |  |  | CN(C)CCC(=O)Nc1ccc(S(=O)(=O)NCCCN2CCC(Cc3ccccc3)CC2)cc1 [Example 18, N-(4-(N-(3-(4-benzylpiperidin-1-yl)propyl)sulfamoyl)phenyl)-3-(dimethylamino)propaneamide] | 
